Data set [1] is described as follows: Lethal dose in male mice (administered ip), activity expressed as LD50 values. Format: toxicity, organism-based. As to conditions: mouse, in vivo.
For data set [2], the species on record is Rattus norvegicus. The experiment in a line: Inhibitory activity against prolactin release in rat anterior pituitary cells. Format: functional, cell-based. The settings on record: Pituitary gland cell.
In data set [3] the test system is Rattus norvegicus. Description: Inhibitory activity against plasma prolactin level in male Sprague-Dawley rats after peroral administration (5mg/Kg), activity expressed as mean duration for submaximal inhibition; Duration 3-4h. Format: functional.
The next data set relates to Canis familiaris. Description: Minimum effective dose (sc) to induce emesis in male or female Beagle dogs. Format: functional. The settings on record: Canis lupus familiaris, read-out: MED.
The target of data set [4] is Dopamine receptor (Bos taurus, UniProt Q95136+P20288). The experiment in a line: In vitro binding affinity towards dopamine receptor was determined in bovine anterior pituitary membrane using [3H]dihydroergocriptine as the radioligand. Format: cell membranes.
For data set [5], the species on record is Rattus norvegicus. Description: Minimum effective dose required to induce rotations in rats with unilateral lesion in the nigrostriatal pathway. Format: functional. The settings on record: read-out: MED.
For data set [6], the species on record is Rattus norvegicus. Description: Minimum effective dose required to decrease striatal DA turnover in rats. Format: functional. The settings on record: read-out: MED.
The species entered for data set [7] is Rattus norvegicus. Description: Minimum effective dose required to produce stereotypies in rats. Format: functional. As to conditions: read-out: MED.
The target of data set [8] is Dopamine receptor. Description: In vitro binding affinity towards dopamine receptor was determined in rat striatal membrane using [3H]spiroperidol as the radioligand. Format: cell membranes, Striatum.
The subject of data set [9] is Rattus norvegicus. Description: Inhibitory activity against plasma prolactin level in male Sprague-Dawley rats after peroral administration (5mg/Kg), activity expressed as mean duration for submaximal inhibition. Format: functional.
In data set [10] the test system is Rattus norvegicus. The experiment in a line: Inhibitory activity against plasma prolactin level in male Sprague-Dawley rats after peroral administration (5mg/Kg), activity expressed as mean duration for submaximal inhibition; Duration 4-8h. Format: functional.
The test system of data set [11] is Rattus norvegicus. Description: Inhibitory activity against plasma prolactin level in male Sprague-Dawley rats after peroral administration (5mg/Kg), activity expressed as mean duration for submaximal inhibition; Duration 3-6h. Format: functional.

From ChEMBL document CHEMBL1122358, “Synthesis and central dopaminergic activities of (+/-)-hexahydro-7H-indolo[3,4-gh][1,4]benzoxazine derivatives [(+/-)-9-oxaergolines]” (J Med Chem, 1983) come the findings set out here.

A word on the LD50: it is the dose at which mortality reaches 50%. A low value points to greater toxicity. Usually IC50 stands for the concentration needed to halve the response being measured. In [1], `CN1CCO[C@@H]2c3cccc4c3c(cn4C)C[C@H]21` came in with a 50% lethal dose (LD50) greater than 200 mg/kg. The values for the IC50 in the data set listed under Rattus norvegicus [2], at Dopamine receptor [4] and on Dopamine receptor [8] were greater than 10000 nM, 4800 nM and 4500 nM, respectively. The compound further displayed a Duration with Rattus norvegicus [3] of 3 h. In addition, the minimal effective dose in the data set on Canis familiaris amounted to 1 mg/kg; in the data set listed under Rattus norvegicus [5], 2 mg/kg; in the data set filed under Rattus norvegicus [6] it was 10 mg/kg; in the data set filed under Rattus norvegicus [7] it was 20 mg/kg.
The compound `CCCN1CCO[C@@H]2c3cccc4c3[C@@H](CN4)C[C@H]21` showed an LD50 in data set [1] of 150 mg/kg. Also, the half-maximal inhibitory concentration (IC50) in the data set filed under Rattus norvegicus [2] stood at 0.1 nM; at Dopamine receptor [4], 300 nM; at Dopamine receptor [8], 600 nM. In addition, the minimal effective dose in the data set on Canis familiaris, in the data set filed under Rattus norvegicus [5], in the data set filed under Rattus norvegicus [6] and in the data set listed under Rattus norvegicus [7] was 0.1 mg/kg each time. The Duration in the data set with Rattus norvegicus [9] was greater than 12 h.
Consider `CN1CCO[C@@H]2c3cccc4[nH]cc(c34)C[C@H]21`, for which the half-inhibitory concentration (IC50) in the data set filed under Rattus norvegicus [2] was determined as 17 nM; on Dopamine receptor [4] it was 2500 nM; at Dopamine receptor [8], 800 nM. For the same compound, the minimal effective dose came to 0.1 mg/kg in the data set on Canis familiaris, 0.2 mg/kg in the data set listed under Rattus norvegicus [5], 0.1 mg/kg in the data set filed under Rattus norvegicus [6] and 0.5 mg/kg in the data set filed under Rattus norvegicus [7]. The Duration with Rattus norvegicus [10] stood at 4 h.
On to `c1cc2c3c(c[nH]c3c1)C[C@H]1NCCO[C@H]21`, for which, in data set [1], the LD50 is 150 mg/kg. Besides, the values for the IC50 in the data set listed under Rattus norvegicus [2], at Dopamine receptor [4] and on Dopamine receptor [8] were 300 nM, 7000 nM and 5000 nM, respectively. In addition, the minimal effective dose is greater than 0.5 mg/kg in the data set on Canis familiaris, 0.5 mg/kg in the data set filed under Rattus norvegicus [5], 1 mg/kg in the data set filed under Rattus norvegicus [6] and 5 mg/kg in the data set filed under Rattus norvegicus [7]. Also, in the data set on Rattus norvegicus [9], the Duration was found to be 3 h.
In turn, `CCCN1C[C@H](CSC)C[C@@H]2c3cccc4[nH]cc(c34)C[C@H]21.CS(=O)(=O)O` [PERGOLIDE MESYLATE] showed an LD50 in data set [1] of 100 mg/kg. Moreover, the midpoint of inhibition in the data set listed under Rattus norvegicus [2], the IC50, lay at 0.07 nM. Further, the minimal effective dose is 0.05 mg/kg with Canis familiaris, 0.02 mg/kg in the data set listed under Rattus norvegicus [5], 0.05 mg/kg in the data set listed under Rattus norvegicus [6] and 0.1 mg/kg in the data set filed under Rattus norvegicus [7]. Also, the Duration in the data set on Rattus norvegicus [9] was greater than 22 h.
Consider `CCCN1CCO[C@@H]2c3cccc4[nH]cc(c34)C[C@H]21`, for which the LD50 in [1] was 150 mg/kg. Further, the half-inhibitory concentration (IC50) is 0.06 nM in the data set listed under Rattus norvegicus [2], 40 nM at Dopamine receptor [4] and 70 nM on Dopamine receptor [8]. Besides, the minimal effective dose in the data set on Canis familiaris was 0.01 mg/kg; in the data set listed under Rattus norvegicus [5], 0.01 mg/kg; in the data set listed under Rattus norvegicus [6], 0.05 mg/kg; in the data set listed under Rattus norvegicus [7], 0.1 mg/kg. This compound also yielded a Duration in the data set on Rattus norvegicus [9] greater than 22 h.
`CN1CCO[C@@H]2c3cccc4[nH]c(Br)c(c34)C[C@H]21`: the LD50 in data set [1] turned out to be 35 mg/kg. The results for the concentration for half-maximal inhibition (IC50) in the data set filed under Rattus norvegicus [2], at Dopamine receptor [4] and on Dopamine receptor [8] were 100 nM, 3000 nM and 1000 nM, respectively. In addition, the minimal effective dose in the data set on Canis familiaris was determined as 0.5 mg/kg; in the data set filed under Rattus norvegicus [5], 1 mg/kg; in the data set filed under Rattus norvegicus [6], 1 mg/kg; in the data set listed under Rattus norvegicus [7], 20 mg/kg. Also, in the data set on Rattus norvegicus [11], the Duration stood at 3 h.
`CCCN1CCO[C@@H]2c3cccc4[nH]c(Br)c(c34)C[C@H]21`: the LD50 in data set [1] was greater than 200 mg/kg. Besides, the IC50 turned out to be 0.2 nM in the data set listed under Rattus norvegicus [2], 500 nM at Dopamine receptor [4] and 250 nM on Dopamine receptor [8]. The minimal effective dose in the data set with Canis familiaris was greater than 0.5 mg/kg; in the data set listed under Rattus norvegicus [5], 0.2 mg/kg; in the data set filed under Rattus norvegicus [6] it was 0.5 mg/kg; in the data set listed under Rattus norvegicus [7], 0.2 mg/kg. Further, in the data set with Rattus norvegicus [9], the Duration was greater than 12 h.
